From paper PMC7714403 (JCI Insight, 2020) come the findings set out here.

SMILES strings stand for the structures.

Common to all, as to assay: KiNativ, OCI cells live cell
Common to all, as to assay type: cell-based

Experiment [1] has as its target CDK7 (Homo sapiens, UniProt P50613). The note with it: 2 h, labeling site Lys2, peptide […].
Experiment [2] addresses CRK7 (Homo sapiens, UniProt Q9NYV4). Conditions: labeling site Lys2, peptide DIKCSNILLNNSGQIK
The target of experiment [3] is MAP2K7 (Homo sapiens, UniProt O14733). The note with it: labeling site Lys2, peptide DVKPSNILLDER
Sequence of MAP2K7 (O14733 whole entry): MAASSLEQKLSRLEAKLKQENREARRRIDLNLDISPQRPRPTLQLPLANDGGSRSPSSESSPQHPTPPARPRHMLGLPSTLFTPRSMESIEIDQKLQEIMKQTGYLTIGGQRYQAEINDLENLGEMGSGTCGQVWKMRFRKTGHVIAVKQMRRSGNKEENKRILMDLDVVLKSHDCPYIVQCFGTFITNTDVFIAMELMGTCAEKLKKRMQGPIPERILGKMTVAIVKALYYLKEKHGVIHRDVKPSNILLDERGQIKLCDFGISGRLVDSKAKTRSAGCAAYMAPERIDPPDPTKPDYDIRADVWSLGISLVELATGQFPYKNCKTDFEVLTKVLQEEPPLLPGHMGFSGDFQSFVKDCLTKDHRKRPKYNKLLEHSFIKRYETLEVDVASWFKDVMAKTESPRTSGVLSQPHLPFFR

Sequence of CRK7 (Q9NYV4 whole entry): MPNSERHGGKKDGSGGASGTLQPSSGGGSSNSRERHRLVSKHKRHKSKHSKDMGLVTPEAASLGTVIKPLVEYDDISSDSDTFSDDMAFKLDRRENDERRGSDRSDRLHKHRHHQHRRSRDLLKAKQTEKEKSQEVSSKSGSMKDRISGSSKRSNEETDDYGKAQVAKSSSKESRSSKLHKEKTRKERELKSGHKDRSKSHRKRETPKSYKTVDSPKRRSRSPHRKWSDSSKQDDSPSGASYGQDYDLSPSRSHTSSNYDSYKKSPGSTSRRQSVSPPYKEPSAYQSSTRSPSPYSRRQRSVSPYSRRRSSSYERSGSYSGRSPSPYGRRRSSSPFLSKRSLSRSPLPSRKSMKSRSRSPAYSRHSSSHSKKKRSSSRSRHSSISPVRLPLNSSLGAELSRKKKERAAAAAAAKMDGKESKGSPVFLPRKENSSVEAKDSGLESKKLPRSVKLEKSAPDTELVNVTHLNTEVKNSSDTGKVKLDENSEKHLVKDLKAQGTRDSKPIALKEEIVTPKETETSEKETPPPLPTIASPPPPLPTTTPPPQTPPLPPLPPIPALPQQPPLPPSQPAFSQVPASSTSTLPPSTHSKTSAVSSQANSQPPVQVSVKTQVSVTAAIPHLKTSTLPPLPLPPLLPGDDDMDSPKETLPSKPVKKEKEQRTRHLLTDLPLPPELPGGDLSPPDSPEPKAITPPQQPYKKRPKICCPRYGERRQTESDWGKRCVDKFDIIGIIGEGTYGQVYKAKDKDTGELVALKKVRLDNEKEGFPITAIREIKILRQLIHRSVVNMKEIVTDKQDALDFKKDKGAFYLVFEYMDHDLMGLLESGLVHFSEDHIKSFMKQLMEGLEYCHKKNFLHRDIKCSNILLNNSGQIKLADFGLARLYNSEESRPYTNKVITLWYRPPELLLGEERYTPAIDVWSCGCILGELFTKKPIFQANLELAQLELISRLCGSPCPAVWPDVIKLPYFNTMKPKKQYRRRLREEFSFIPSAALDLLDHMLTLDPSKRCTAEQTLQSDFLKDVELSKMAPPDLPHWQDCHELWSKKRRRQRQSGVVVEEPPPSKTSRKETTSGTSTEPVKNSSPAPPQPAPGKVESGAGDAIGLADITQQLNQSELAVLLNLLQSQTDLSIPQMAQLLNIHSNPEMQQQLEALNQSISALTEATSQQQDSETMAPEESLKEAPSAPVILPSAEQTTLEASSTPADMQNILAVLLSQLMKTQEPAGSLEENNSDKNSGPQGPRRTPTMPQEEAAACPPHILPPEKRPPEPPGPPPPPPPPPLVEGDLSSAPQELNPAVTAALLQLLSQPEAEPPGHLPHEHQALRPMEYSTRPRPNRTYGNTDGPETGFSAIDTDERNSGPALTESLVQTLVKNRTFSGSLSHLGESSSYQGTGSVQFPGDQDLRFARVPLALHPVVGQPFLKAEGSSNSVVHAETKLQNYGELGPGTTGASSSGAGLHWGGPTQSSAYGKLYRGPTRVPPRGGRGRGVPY
Sequence of CRK7 (O75909 whole entry partner): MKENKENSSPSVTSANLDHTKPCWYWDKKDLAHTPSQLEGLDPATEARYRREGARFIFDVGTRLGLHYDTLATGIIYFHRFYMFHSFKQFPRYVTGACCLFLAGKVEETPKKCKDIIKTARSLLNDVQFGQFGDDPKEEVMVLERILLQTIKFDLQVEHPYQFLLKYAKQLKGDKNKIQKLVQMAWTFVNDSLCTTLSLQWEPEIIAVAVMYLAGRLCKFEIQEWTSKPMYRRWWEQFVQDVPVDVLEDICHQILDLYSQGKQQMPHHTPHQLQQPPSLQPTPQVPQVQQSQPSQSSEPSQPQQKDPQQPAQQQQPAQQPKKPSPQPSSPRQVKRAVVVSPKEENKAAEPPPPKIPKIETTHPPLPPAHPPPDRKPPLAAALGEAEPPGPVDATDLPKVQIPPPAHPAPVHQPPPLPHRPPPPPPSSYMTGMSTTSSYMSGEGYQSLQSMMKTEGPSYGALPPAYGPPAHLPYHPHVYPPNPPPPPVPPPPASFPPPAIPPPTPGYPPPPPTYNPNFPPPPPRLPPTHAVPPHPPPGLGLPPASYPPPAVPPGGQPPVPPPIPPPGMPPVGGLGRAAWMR
Sequence of CDK7 (P50613 2-346 limits assumed): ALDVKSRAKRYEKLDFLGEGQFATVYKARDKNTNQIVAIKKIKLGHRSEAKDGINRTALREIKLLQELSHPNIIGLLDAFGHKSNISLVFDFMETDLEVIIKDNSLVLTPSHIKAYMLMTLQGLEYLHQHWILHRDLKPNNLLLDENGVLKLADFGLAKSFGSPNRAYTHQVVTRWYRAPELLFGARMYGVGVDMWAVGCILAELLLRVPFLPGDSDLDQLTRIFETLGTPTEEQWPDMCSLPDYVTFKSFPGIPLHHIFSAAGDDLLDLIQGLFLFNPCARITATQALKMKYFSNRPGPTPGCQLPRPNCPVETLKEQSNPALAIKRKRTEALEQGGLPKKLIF
Sequence of CDK7 (P51946 whole entry partner): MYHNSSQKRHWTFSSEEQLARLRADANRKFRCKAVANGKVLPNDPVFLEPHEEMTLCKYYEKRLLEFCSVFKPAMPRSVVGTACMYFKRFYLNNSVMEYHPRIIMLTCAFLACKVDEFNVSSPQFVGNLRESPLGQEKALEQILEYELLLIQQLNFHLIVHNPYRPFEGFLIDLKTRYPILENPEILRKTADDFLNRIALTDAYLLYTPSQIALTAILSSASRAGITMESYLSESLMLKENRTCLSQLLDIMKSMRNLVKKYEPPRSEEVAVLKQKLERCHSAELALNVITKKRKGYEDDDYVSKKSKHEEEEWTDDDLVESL
Sequence of CDK7 (P51948 whole entry partner): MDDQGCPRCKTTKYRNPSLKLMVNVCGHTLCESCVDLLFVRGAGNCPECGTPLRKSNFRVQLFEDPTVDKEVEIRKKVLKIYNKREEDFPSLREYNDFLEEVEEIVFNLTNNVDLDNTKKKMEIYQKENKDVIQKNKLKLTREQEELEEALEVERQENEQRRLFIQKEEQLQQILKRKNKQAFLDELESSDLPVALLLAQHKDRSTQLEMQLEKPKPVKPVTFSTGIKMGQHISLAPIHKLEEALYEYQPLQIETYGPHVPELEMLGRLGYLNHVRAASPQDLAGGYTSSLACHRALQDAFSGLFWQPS

In experiment [1], `CN1CCN(Cc2ccc(Nc3ncc(Cl)c(Nc4ccccc4S(=O)(=O)N(C)C)n3)cc2)CC1` [TP-0903] registered an inhibition at 0.1 µM of 95.7%. Further, the Inhibition is 57.2% in experiment [2] and -6.6% in experiment [3].

As usually defined, the inhibition is how much of the control response was suppressed. A word on the Inhibition: it is the drop in the measured response relative to a control, in per cent.
